Assay results from patent publication US20260130395A1, “Water Dispersible Botanical Compositions” (Aquila Black Limited, priority 2021, published 2026).

Columns and labels:
[1] = Stability of cannabinoid compounds and Vitamin E components in Beverage 1 (AB White) by LCMSMS; assay type: physicochemical; details: AB White stored at 21-25° C.
[2] = Stability of cannabinoid entourage and Vitamin E components of the powder concentrate by LCMSMS; assay type: physicochemical; details: powder stored at 21-25° C.
Description: At each time period, 0.05 g of powder was dissolved in 10 ml-15 of ethanol, diluted to fall within the analytical range, and injected into the LCMSMS for analysis.

SMILES: C=C(C)[C@@H]1CCC(C)=C[C@H]1c1c(O)cc(CCC)cc1O [CBDV, cannabidivarin]
- Stability of Plant-Derived Cannabinoid Compounds in AB White, 21-25° C. ([1]; 29 days): 0.147 µg/mL
- Stability of Plant-Derived Cannabinoid Compounds in AB White, 21-25° C. ([1]; 30 days): 0.151 µg/mL
- Stability of Plant-Derived Cannabinoid Compounds in AB White, 21-25° C. ([1]; 60 days): 0.149 µg/mL
- Stability of Plant-Derived Cannabinoid Compounds in AB White, 21-25° C. ([1]; 90 days): 0.143 µg/mL
- Stability of Plant-Derived Cannabinoid Compounds in AB White, 21-25° C. ([1]; 120 days): 0.141 µg/mL
- Stability of Plant-Derived Cannabinoid Compounds in AB White, 21-25° C. ([1]; 150 days): 0.146 µg/mL
- Stability of Plant-Derived Cannabinoid Compounds in AB White, 21-25° C. ([1]; 180 days): 0.141 µg/mL
- Stability of Plant-Derived Cannabinoid Compounds in AB White, 21-25° C. ([1]; 210 days): 0.142 µg/mL
- Stability of Plant-Derived Cannabinoid Compounds in AB White, 21-25° C. ([1]; 240 days): 0.145 µg/mL
- Stability of Plant-Derived Cannabinoid Compounds in AB White, 21-25° C. ([1]; 270 days): 0.148 µg/mL
- Stability of Plant-Derived Cannabinoid Compounds in AB White, 21-25° C. ([1]; 300 days): 0.142 µg/mL
- Stability of Plant-Derived Cannabinoid Compounds in AB White, 21-25° C. ([1]; 330 days): 0.144 µg/mL
- Stability of Plant-Derived Cannabinoid Compounds in AB White, 21-25° C. ([1]; 360 days): 0.146 µg/mL
- Stability of Plant-Derived Cannabinoid Compounds in AB White, 21-25° C. ([1]; 390 days): 0.146 µg/mL
- Stability of Plant-Derived Cannabinoid Compounds in AB White, 21-25° C. ([1]; 420 days): 0.143 µg/mL
- Stability of Plant-Derived Cannabinoid Compounds in AB White, 21-25° C. ([1]; 450 days): 0.144 µg/mL
- Stability of Plant-Derived Cannabinoid Compounds in AB White, 21-25° C. ([1]; 480 days): 0.143 µg/mL
- Stability of Plant-Derived Cannabinoid Compounds in AB White, 21-25° C. ([1]; 510 days): 0.139 µg/mL
- Stability of Plant-Derived Cannabinoid Compounds in AB White, 21-25° C. ([1]; 540 days): 0.140 µg/mL
- Stability of Plant-Derived Cannabinoid Compounds in AB White, 21-25° C. ([1]; 570 days): 0.138 µg/mL
- Stability of Plant-Derived Cannabinoid Compounds in Powder Concentrate ([2]; 0 days): 0.050 mg/g powder
- Stability of Plant-Derived Cannabinoid Compounds in Powder Concentrate ([2]; 1 days): 0.051 mg/g powder
- Stability of Plant-Derived Cannabinoid Compounds in Powder Concentrate ([2]; 2 days): 0.051 mg/g powder
- Stability of Plant-Derived Cannabinoid Compounds in Powder Concentrate ([2]; 3 days): 0.048 mg/g powder
- Stability of Plant-Derived Cannabinoid Compounds in Powder Concentrate ([2]; 5 days): 0.050 mg/g powder
- Stability of Plant-Derived Cannabinoid Compounds in Powder Concentrate ([2]; 8 days): 0.051 mg/g powder
- Stability of Plant-Derived Cannabinoid Compounds in Powder Concentrate ([2]; 9 days): 0.049 mg/g powder
- Stability of Plant-Derived Cannabinoid Compounds in Powder Concentrate ([2]; 10 days): 0.050 mg/g powder
- Stability of Plant-Derived Cannabinoid Compounds in Powder Concentrate ([2]; 11 days): 0.051 mg/g powder
- Stability of Plant-Derived Cannabinoid Compounds in Powder Concentrate ([2]; 12 days): 0.051 mg/g powder
- Stability of Plant-Derived Cannabinoid Compounds in Powder Concentrate ([2]; 15 days): 0.050 mg/g powder
- Stability of Plant-Derived Cannabinoid Compounds in Powder Concentrate ([2]; 16 days): 0.049 mg/g powder
- Stability of Plant-Derived Cannabinoid Compounds in Powder Concentrate ([2]; 17 days): 0.051 mg/g powder
- Stability of Plant-Derived Cannabinoid Compounds in Powder Concentrate ([2]; 18 days): 0.051 mg/g powder
- Stability of Plant-Derived Cannabinoid Compounds in Powder Concentrate ([2]; 19 days): 0.048 mg/g powder
- Stability of Plant-Derived Cannabinoid Compounds in Powder Concentrate ([2]; 22 days): 0.049 mg/g powder
- Stability of Plant-Derived Cannabinoid Compounds in Powder Concentrate ([2]; 23 days): 0.050 mg/g powder
- Stability of Plant-Derived Cannabinoid Compounds in Powder Concentrate ([2]; 24 days): 0.051 mg/g powder
- Stability of Plant-Derived Cannabinoid Compounds in Powder Concentrate ([2]; 25 days): 0.052 mg/g powder
- Stability of Plant-Derived Cannabinoid Compounds in Powder Concentrate ([2]; 26 days): 0.050 mg/g powder
- Stability of Plant-Derived Cannabinoid Compounds in Powder Concentrate ([2]; 29 days): 0.049 mg/g powder
- Stability of Plant-Derived Cannabinoid Compounds in Powder Concentrate ([2]; 30 days): 0.051 mg/g powder
- Stability of Plant-Derived Cannabinoid Compounds in Powder Concentrate ([2]; 60 days): 0.050 mg/g powder
- Stability of Plant-Derived Cannabinoid Compounds in Powder Concentrate ([2]; 90 days): 0.050 mg/g powder
- Stability of Plant-Derived Cannabinoid Compounds in Powder Concentrate ([2]; 120 days): 0.050 mg/g powder
- Stability of Plant-Derived Cannabinoid Compounds in Powder Concentrate ([2]; 150 days): 0.051 mg/g powder
- Stability of Plant-Derived Cannabinoid Compounds in Powder Concentrate ([2]; 180 days): 0.050 mg/g powder
- Stability of Plant-Derived Cannabinoid Compounds in Powder Concentrate ([2]; 210 days): 0.049 mg/g powder
- Stability of Plant-Derived Cannabinoid Compounds in Powder Concentrate ([2]; 240 days): 0.052 mg/g powder
- Stability of Plant-Derived Cannabinoid Compounds in Powder Concentrate ([2]; 270 days): 0.051 mg/g powder
- Stability of Plant-Derived Cannabinoid Compounds in Powder Concentrate ([2]; 300 days): 0.049 mg/g powder
- Stability of Plant-Derived Cannabinoid Compounds in Powder Concentrate ([2]; 330 days): 0.052 mg/g powder
- Stability of Plant-Derived Cannabinoid Compounds in Powder Concentrate ([2]; 360 days): 0.050 mg/g powder
- Stability of Plant-Derived Cannabinoid Compounds in Powder Concentrate ([2]; 390 days): 0.049 mg/g powder
- Stability of Plant-Derived Cannabinoid Compounds in Powder Concentrate ([2]; 420 days): 0.051 mg/g powder
- Stability of Plant-Derived Cannabinoid Compounds in Powder Concentrate ([2]; 450 days): 0.049 mg/g powder
- Stability of Plant-Derived Cannabinoid Compounds in Powder Concentrate ([2]; 480 days): 0.051 mg/g powder
- Stability of Plant-Derived Cannabinoid Compounds in Powder Concentrate ([2]; 510 days): 0.049 mg/g powder
- Stability of Plant-Derived Cannabinoid Compounds in Powder Concentrate ([2]; 540 days): 0.052 mg/g powder
- Stability of Plant-Derived Cannabinoid Compounds in Powder Concentrate ([2]; 570 days): 0.048 mg/g powder
